# Test results: ChEMBL document CHEMBL1155538 (Bioorg Med Chem Lett, 2010)
# pIC50, pKi: −log10 of the molar value.
# Experiments:
# [1] = Half life in human liver microsomes; format: ADME, Microsome
# [2] = Inhibition of tetrodotoxin-sensitive sodium channel
# [3] = molecular target: Voltage-gated inwardly rectifying potassium channel KCNH2 (Homo sapiens, UniProt Q12809); assay: Displacement of [3H]dofetilide from human ERG
# [4] = molecular target: Sodium-dependent serotonin transporter (Homo sapiens, UniProt P31645); assay: biochemical
# [5] = molecular target: Sodium-dependent noradrenaline transporter (Homo sapiens, UniProt P23975); assay: biochemical
# [6] = molecular target: Sodium-dependent dopamine transporter (Homo sapiens, UniProt Q01959); assay: biochemical
# Sodium-dependent dopamine transporter, sequence (Q01959 whole entry): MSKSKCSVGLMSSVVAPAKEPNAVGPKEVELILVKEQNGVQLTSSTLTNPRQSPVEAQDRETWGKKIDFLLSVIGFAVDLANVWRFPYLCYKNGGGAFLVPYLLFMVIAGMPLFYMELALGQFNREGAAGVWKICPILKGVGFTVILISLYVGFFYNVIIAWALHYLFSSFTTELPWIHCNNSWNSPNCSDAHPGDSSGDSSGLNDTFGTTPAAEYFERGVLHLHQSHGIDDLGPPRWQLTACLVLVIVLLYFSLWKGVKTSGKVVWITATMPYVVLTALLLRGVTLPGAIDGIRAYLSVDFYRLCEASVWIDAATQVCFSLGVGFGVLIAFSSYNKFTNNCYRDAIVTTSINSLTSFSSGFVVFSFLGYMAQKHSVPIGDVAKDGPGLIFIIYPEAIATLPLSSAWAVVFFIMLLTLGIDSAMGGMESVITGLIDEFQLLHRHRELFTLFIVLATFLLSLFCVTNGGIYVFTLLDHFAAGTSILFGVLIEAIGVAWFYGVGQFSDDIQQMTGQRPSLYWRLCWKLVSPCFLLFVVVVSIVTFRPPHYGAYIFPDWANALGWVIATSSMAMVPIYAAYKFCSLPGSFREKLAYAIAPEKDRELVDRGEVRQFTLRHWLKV
# Voltage-gated inwardly rectifying potassium channel KCNH2, sequence (Q12809 whole entry): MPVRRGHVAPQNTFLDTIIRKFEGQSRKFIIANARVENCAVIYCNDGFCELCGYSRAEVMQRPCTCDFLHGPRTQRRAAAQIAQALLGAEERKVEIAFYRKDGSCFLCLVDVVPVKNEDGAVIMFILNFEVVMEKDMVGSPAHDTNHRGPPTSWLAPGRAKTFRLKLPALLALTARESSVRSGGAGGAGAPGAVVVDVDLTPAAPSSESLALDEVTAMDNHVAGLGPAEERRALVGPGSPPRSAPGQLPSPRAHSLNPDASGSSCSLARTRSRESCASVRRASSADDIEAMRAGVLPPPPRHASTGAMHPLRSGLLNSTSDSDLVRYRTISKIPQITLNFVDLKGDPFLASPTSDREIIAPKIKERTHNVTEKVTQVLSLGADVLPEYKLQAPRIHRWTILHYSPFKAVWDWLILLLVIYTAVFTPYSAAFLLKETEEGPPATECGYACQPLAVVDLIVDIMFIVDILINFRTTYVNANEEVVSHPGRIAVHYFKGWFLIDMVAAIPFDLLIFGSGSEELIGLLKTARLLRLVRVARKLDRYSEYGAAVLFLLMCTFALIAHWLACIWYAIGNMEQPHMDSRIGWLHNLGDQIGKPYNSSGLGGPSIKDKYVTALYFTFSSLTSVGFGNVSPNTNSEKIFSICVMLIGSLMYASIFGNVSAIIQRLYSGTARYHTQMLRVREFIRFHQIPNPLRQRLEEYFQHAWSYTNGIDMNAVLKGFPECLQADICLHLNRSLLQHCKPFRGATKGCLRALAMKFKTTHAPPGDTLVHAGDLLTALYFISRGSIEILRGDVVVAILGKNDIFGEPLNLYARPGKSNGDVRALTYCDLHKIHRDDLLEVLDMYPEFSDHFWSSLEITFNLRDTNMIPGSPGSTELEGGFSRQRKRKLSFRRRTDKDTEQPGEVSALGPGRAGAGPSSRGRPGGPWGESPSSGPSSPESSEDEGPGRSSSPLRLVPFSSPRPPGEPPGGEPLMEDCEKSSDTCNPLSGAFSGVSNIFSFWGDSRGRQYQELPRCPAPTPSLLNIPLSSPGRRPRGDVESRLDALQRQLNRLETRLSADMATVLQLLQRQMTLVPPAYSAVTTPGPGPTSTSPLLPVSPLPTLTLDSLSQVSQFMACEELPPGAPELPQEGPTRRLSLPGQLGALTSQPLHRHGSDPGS
# Sodium-dependent serotonin transporter, sequence (P31645 whole entry): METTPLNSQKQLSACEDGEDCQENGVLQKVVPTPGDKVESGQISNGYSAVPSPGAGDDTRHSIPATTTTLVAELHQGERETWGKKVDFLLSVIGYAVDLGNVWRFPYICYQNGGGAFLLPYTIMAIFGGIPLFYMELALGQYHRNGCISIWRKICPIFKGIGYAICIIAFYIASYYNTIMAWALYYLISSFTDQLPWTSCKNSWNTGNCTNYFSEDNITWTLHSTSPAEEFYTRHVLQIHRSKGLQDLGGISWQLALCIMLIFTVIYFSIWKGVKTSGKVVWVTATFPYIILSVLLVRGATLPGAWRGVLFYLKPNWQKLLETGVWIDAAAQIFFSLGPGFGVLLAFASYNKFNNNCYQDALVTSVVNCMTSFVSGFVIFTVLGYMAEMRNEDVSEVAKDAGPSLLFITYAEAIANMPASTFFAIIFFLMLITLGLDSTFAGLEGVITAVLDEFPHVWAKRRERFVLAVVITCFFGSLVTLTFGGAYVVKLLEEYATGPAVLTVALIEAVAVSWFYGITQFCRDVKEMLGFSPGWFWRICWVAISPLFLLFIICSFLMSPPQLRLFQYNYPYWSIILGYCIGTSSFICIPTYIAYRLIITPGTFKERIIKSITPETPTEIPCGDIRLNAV
# Sodium-dependent noradrenaline transporter, sequence (P23975 whole entry): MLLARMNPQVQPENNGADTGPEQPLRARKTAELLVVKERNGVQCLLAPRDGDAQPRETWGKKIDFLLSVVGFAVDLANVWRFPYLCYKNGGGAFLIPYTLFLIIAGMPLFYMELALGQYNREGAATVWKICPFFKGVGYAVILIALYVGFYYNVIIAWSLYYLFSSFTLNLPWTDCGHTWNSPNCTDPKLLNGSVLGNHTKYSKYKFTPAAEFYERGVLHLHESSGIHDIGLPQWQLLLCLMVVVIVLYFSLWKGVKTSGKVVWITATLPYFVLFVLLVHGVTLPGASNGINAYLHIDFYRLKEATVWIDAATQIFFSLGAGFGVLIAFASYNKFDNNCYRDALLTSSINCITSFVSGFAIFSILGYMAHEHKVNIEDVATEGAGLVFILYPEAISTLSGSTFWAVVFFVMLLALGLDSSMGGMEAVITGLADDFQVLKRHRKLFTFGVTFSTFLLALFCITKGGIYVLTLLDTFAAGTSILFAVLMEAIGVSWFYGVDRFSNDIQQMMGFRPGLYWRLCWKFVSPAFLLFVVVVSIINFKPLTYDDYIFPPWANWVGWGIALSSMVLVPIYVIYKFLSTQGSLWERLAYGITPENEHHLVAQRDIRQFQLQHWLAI
Structure (SMILES),half-life [1] [min],pIC50 [2],pIC50 [3],pKi [4],pKi [5],pKi [6]
CC(C)CN(C(=O)c1cccc(Cl)c1Cl)[C@H]1CCNC1,> 120,5.07,–,–,–,–
c1ccc(C(Cc2cccc3c2OCC3)N2CCNCC2)cc1 (stereo unspecified),–,–,4.67,8.10,6.47,< 5.50
